{"source": "ChEMBL document CHEMBL3621073", "about": "“Bile acid amphiphiles with tunable head groups as highly selective antitubercular agents” (Medchemcomm, 2014)", "data": [{"system": "Staphylococcus aureus", "test": "Antibacterial activity against Staphylococcus aureus MTCC 737 after 12 hrs by microplate reader assay", "type": "functional", "settings": "MTCC 737, 12 h", "units": {"MIC99": "µM"}, "values": [{"smiles": "COC(=O)CC[C@@H](C)[C@H]1CC[C@H]2[C@@H]3[C@H](OC(=O)CN)C[C@@H]4C[C@H](OC(=O)CN)CC[C@]4(C)[C@H]3CC[C@]12C", "MIC99": 128}, {"smiles": "COC(=O)CC[C@@H](C)[C@H]1CC[C@H]2[C@@H]3CC[C@@H]4C[C@H](OC(=O)C[N+](C)(C)C)CC[C@]4(C)[C@H]3CC[C@]12C", "MIC99": "> 512"}, {"smiles": "COC(=O)CC[C@@H](C)[C@H]1CC[C@H]2[C@@H]3[C@H](OC(=O)C[n+]4ccccc4)C[C@@H]4C[C@H](OC(=O)C[n+]5ccccc5)CC[C@]4(C)[C@H]3CC[C@]12C", "MIC99": 256}, {"smiles": "COC(=O)CC[C@@H](C)[C@H]1CC[C@H]2[C@@H]3CC[C@@H]4C[C@H](OC(=O)CN)CC[C@]4(C)[C@H]3CC[C@]12C", "MIC99": "> 512"}]}, {"system": "not listed separately", "test": "Therapeutic index, ratio of MHC50 for chicken RBC to MIC99 for Mycobacterium tuberculosis H37Rv", "settings": "chicken red blood cells, read-out: TI", "values": [{"smiles": "COC(=O)CC[C@@H](C)[C@H]1CC[C@H]2[C@@H]3[C@H](OC(=O)CN)C[C@@H]4C[C@H](OC(=O)CN)CC[C@]4(C)[C@H]3CC[C@]12C", "selectivity ratio": "< 20"}, {"smiles": "COC(=O)CC[C@@H](C)[C@H]1CC[C@H]2[C@@H]3CC[C@@H]4C[C@H](OC(=O)C[N+](C)(C)C)CC[C@]4(C)[C@H]3CC[C@]12C", "selectivity ratio": "> 20"}, {"smiles": "COC(=O)CC[C@@H](C)[C@H]1CC[C@H]2[C@@H]3[C@H](OC(=O)C[n+]4ccccc4)C[C@@H]4C[C@H](OC(=O)C[n+]5ccccc5)CC[C@]4(C)[C@H]3CC[C@]12C", "selectivity ratio": "> 40"}, {"smiles": "COC(=O)CC[C@@H](C)[C@H]1CC[C@H]2[C@@H]3CC[C@@H]4C[C@H](OC(=O)CN)CC[C@]4(C)[C@H]3CC[C@]12C", "selectivity ratio": "< 20"}]}, {"system": "Mycolicibacterium smegmatis", "test": "Antimycobacterial activity against Mycobacterium smegmatis str. MC2 155 after 2 days by inverted microscopic analysis", "type": "functional", "settings": "str. MC2 155, 48 h", "units": {"MIC99": "µM"}, "values": [{"smiles": "COC(=O)CC[C@@H](C)[C@H]1CC[C@H]2[C@@H]3[C@H](OC(=O)CN)C[C@@H]4C[C@H](OC(=O)CN)CC[C@]4(C)[C@H]3CC[C@]12C", "MIC99": "> 50"}, {"smiles": "COC(=O)CC[C@@H](C)[C@H]1CC[C@H]2[C@@H]3CC[C@@H]4C[C@H](OC(=O)C[N+](C)(C)C)CC[C@]4(C)[C@H]3CC[C@]12C", "MIC99": 6.25}, {"smiles": "COC(=O)CC[C@@H](C)[C@H]1CC[C@H]2[C@@H]3[C@H](OC(=O)C[n+]4ccccc4)C[C@@H]4C[C@H](OC(=O)C[n+]5ccccc5)CC[C@]4(C)[C@H]3CC[C@]12C", "MIC99": 3.12}, {"smiles": "COC(=O)CC[C@@H](C)[C@H]1CC[C@H]2[C@@H]3CC[C@@H]4C[C@H](OC(=O)CN)CC[C@]4(C)[C@H]3CC[C@]12C", "MIC99": "> 50"}, {"smiles": "NNC(=O)c1ccncc1", "note": "[ISONIAZID]", "MIC99": "> 50"}, {"smiles": "C[C@H]1COc2c(N3CCN(C)CC3)c(F)cc3c(=O)c(C(=O)O)cn1c23", "note": "[LEVOFLOXACIN]", "MIC99": 0.58}]}, {"system": "Escherichia coli", "test": "Antibacterial activity against Escherichia coli MTCC 443 after 12 hrs by microplate reader assay", "type": "functional", "settings": "MTCC 443, 12 h", "units": {"MIC99": "µM"}, "values": [{"smiles": "COC(=O)CC[C@@H](C)[C@H]1CC[C@H]2[C@@H]3[C@H](OC(=O)CN)C[C@@H]4C[C@H](OC(=O)CN)CC[C@]4(C)[C@H]3CC[C@]12C", "MIC99": 64}, {"smiles": "COC(=O)CC[C@@H](C)[C@H]1CC[C@H]2[C@@H]3CC[C@@H]4C[C@H](OC(=O)C[N+](C)(C)C)CC[C@]4(C)[C@H]3CC[C@]12C", "MIC99": "> 512"}, {"smiles": "COC(=O)CC[C@@H](C)[C@H]1CC[C@H]2[C@@H]3[C@H](OC(=O)C[n+]4ccccc4)C[C@@H]4C[C@H](OC(=O)C[n+]5ccccc5)CC[C@]4(C)[C@H]3CC[C@]12C", "MIC99": 128}, {"smiles": "COC(=O)CC[C@@H](C)[C@H]1CC[C@H]2[C@@H]3CC[C@@H]4C[C@H](OC(=O)CN)CC[C@]4(C)[C@H]3CC[C@]12C", "MIC99": "> 512"}]}, {"system": "THP-1", "test": "Cytotoxicity against human THP1 cells after 48 hrs by MTT assay", "type": "cell-based", "settings": "THP-1, 48 h", "units": {"IC50": "µM"}, "values": [{"smiles": "COC(=O)CC[C@@H](C)[C@H]1CC[C@H]2[C@@H]3[C@H](OC(=O)CN)C[C@@H]4C[C@H](OC(=O)CN)CC[C@]4(C)[C@H]3CC[C@]12C", "IC50": 13.7}, {"smiles": "COC(=O)CC[C@@H](C)[C@H]1CC[C@H]2[C@@H]3CC[C@@H]4C[C@H](OC(=O)C[N+](C)(C)C)CC[C@]4(C)[C@H]3CC[C@]12C", "IC50": 62}, {"smiles": "COC(=O)CC[C@@H](C)[C@H]1CC[C@H]2[C@@H]3[C@H](OC(=O)C[n+]4ccccc4)C[C@@H]4C[C@H](OC(=O)C[n+]5ccccc5)CC[C@]4(C)[C@H]3CC[C@]12C", "IC50": "> 200"}, {"smiles": "COC(=O)CC[C@@H](C)[C@H]1CC[C@H]2[C@@H]3CC[C@@H]4C[C@H](OC(=O)CN)CC[C@]4(C)[C@H]3CC[C@]12C", "IC50": 14}]}, {"system": "A549", "test": "Cytotoxicity against human A549 cells after 48 hrs by MTT assay", "type": "cell-based", "settings": "A549, 48 h", "units": {"IC50": "µM"}, "values": [{"smiles": "COC(=O)CC[C@@H](C)[C@H]1CC[C@H]2[C@@H]3[C@H](OC(=O)CN)C[C@@H]4C[C@H](OC(=O)CN)CC[C@]4(C)[C@H]3CC[C@]12C", "IC50": 14.8}, {"smiles": "COC(=O)CC[C@@H](C)[C@H]1CC[C@H]2[C@@H]3CC[C@@H]4C[C@H](OC(=O)C[N+](C)(C)C)CC[C@]4(C)[C@H]3CC[C@]12C", "IC50": 69}, {"smiles": "COC(=O)CC[C@@H](C)[C@H]1CC[C@H]2[C@@H]3[C@H](OC(=O)C[n+]4ccccc4)C[C@@H]4C[C@H](OC(=O)C[n+]5ccccc5)CC[C@]4(C)[C@H]3CC[C@]12C", "IC50": 168}, {"smiles": "COC(=O)CC[C@@H](C)[C@H]1CC[C@H]2[C@@H]3CC[C@@H]4C[C@H](OC(=O)CN)CC[C@]4(C)[C@H]3CC[C@]12C", "IC50": 24.6}]}, {"system": "Mycobacterium tuberculosis", "test": "Antimycobacterial activity against Mycobacterium tuberculosis H37Rv after 14 days by inverted microscopic analysis", "type": "functional", "settings": "336 h", "units": {"MIC99": "µM"}, "values": [{"smiles": "COC(=O)CC[C@@H](C)[C@H]1CC[C@H]2[C@@H]3[C@H](OC(=O)CN)C[C@@H]4C[C@H](OC(=O)CN)CC[C@]4(C)[C@H]3CC[C@]12C", "MIC99": "> 50"}, {"smiles": "COC(=O)CC[C@@H](C)[C@H]1CC[C@H]2[C@@H]3CC[C@@H]4C[C@H](OC(=O)C[N+](C)(C)C)CC[C@]4(C)[C@H]3CC[C@]12C", "MIC99": 50}, {"smiles": "COC(=O)CC[C@@H](C)[C@H]1CC[C@H]2[C@@H]3[C@H](OC(=O)C[n+]4ccccc4)C[C@@H]4C[C@H](OC(=O)C[n+]5ccccc5)CC[C@]4(C)[C@H]3CC[C@]12C", "MIC99": 25}, {"smiles": "COC(=O)CC[C@@H](C)[C@H]1CC[C@H]2[C@@H]3CC[C@@H]4C[C@H](OC(=O)CN)CC[C@]4(C)[C@H]3CC[C@]12C", "MIC99": "> 50"}, {"smiles": "NNC(=O)c1ccncc1", "note": "[ISONIAZID]", "MIC99": 0.78}, {"smiles": "C[C@H]1COc2c(N3CCN(C)CC3)c(F)cc3c(=O)c(C(=O)O)cn1c23", "note": "[LEVOFLOXACIN]", "MIC99": 0.78}]}, {"system": "not listed separately", "test": "Therapeutic index, ratio of MHC50 for sheep RBC to MIC99 for Mycobacterium tuberculosis H37Rv", "settings": "sheep red blood cells, read-out: TI", "values": [{"smiles": "COC(=O)CC[C@@H](C)[C@H]1CC[C@H]2[C@@H]3[C@H](OC(=O)CN)C[C@@H]4C[C@H](OC(=O)CN)CC[C@]4(C)[C@H]3CC[C@]12C", "selectivity ratio": "< 20"}, {"smiles": "COC(=O)CC[C@@H](C)[C@H]1CC[C@H]2[C@@H]3CC[C@@H]4C[C@H](OC(=O)C[N+](C)(C)C)CC[C@]4(C)[C@H]3CC[C@]12C", "selectivity ratio": "> 20"}, {"smiles": "COC(=O)CC[C@@H](C)[C@H]1CC[C@H]2[C@@H]3[C@H](OC(=O)C[n+]4ccccc4)C[C@@H]4C[C@H](OC(=O)C[n+]5ccccc5)CC[C@]4(C)[C@H]3CC[C@]12C", "selectivity ratio": "> 40"}, {"smiles": "COC(=O)CC[C@@H](C)[C@H]1CC[C@H]2[C@@H]3CC[C@@H]4C[C@H](OC(=O)CN)CC[C@]4(C)[C@H]3CC[C@]12C", "selectivity ratio": "< 20"}]}]}
